These results are taken from PMC10179701, “Towards Protection of Nucleic Acids from Herbicide Attack: Self-Assembly of Betaines Based on Pillar[5]arene with Glyphosate and DNA” (International Journal of Molecular Sciences, 2023).

SMILES strings stand for the structures. Marks after values point to notes of the source that are not given here.

One series concerns the target DNA from salmon sperm. Briefly: UV-Vis spectrophotometric titration, association with DNA from salmon sperm. The series is classed as binding. Particulars: 1:1 complex, Tris-HCl buffer pH 7.44, CDNA 2.5 × 10^–7 M, BindFit. How it is done: The interaction of GIS with a series of synthesized pillar[5]arenes 1–4 and DNA was studied by UV-Vis spectroscopy. UV-Vis spectroscopy is a universal method to study the complex properties of synthetic receptors. The interaction of GIS with DNA from salmon sperm was initially studied (Figure 5). DNA from salmon sperm was chosen as a model substrate due to its relatively low molecular weight and small size. The experiments were carried out in a Tris-HCl buffer system (pH = 7.44).
The association constants were determined by spectrophotometric titration to quantify the interaction of DNA with GIS. The UV-Vis spectra of the DNA–GIS system were recorded in such a way that the DNA concentration remained constant (2.5 × 10^–7 M), and the herbicide concentration ratio increased from 1:0.3 to 1:10 (Figure 5b). The obtained experimental data were processed by the BindFit program. The association constant of a 1:1 complex was calculated (Figure S23). The logarithm of the association constant of DNA with GIS was determined as lgKa = 4.92. […] However, in this case, the association constant of the complexes was determined with a large error.
Further, the interaction of macrocycles 1–4 with the DNA from salmon sperm in Tris-HCl was studied by UV-Vis spectroscopy. […] The association constant of compound 4-DNA complex was determined by spectrophotometric titration. […] The logarithm of the association constant of pillar[5]arene 4 with the DNA was determined as lgKa (4–DNA) = 5.24.
The association constant of compound 1-DNA complex was also determined by spectrophotometric titration (Figure S25b). The logarithm of the association constant of pillar[5]arene 1 with DNA was determined as lgKa(1–DNA) = 4.88 (Figure S27). […]
buffer solution. The UV spectra of the solutions were then recorded. The stability constant of complex was calculated by Bindfit. […]
volume of 3 mL with Tris‐HCl buffer solution. The UV spectra of the solutions were then recorded. The stability constant of each complex was calculated by Bindfit. […]
stability constant of complex was calculated by Bindfit. […]

Another series relates to A549 cells. Briefly: MTT test, A549 cells. How it is done: The next stage of this work was the study of pillar[5]arenes 1–4 ability to inhibit the viability and proliferative activity of embryonic lung epithelial (LEC) and human lung adenocarcinoma (A549) cells using the MTT test.
Further, the ability of GIS to inhibit the viability and proliferative activity of LEC and A549 cells was studied by the MTT test. […] The average inhibitory concentration (IC50) was calculated for GIS (Table 3). […]
1.6. Cytotoxicity of pillar[5]arenes 1–4, GIS and their mixtures on A549 and LEC Cell Lines […]
activity of LEC cells and A549 cells was investigated using the MTT test according to [2]. A549 – human alveolar adenocarcinoma cell line (ATCC, Rockville, Maryland, USA) and cow embryo lung epithelial (LEC) cells (Animal Cell Culture Collection of Russian Academy of Agricultural Science, Kazan, Russia) were cultured in DMEM (GIBCO, Waltham, MA, USA) medium supplemented with 10% serum and 100 units/mL of penicillin (PanEco, Moscow, Russia) and streptomycin (PanEco, Moscow, Russia) in a humidified atmosphere with 5% CO2 at 37 °C. Cells were seeded in 96‐well plates at a concentration of 10^4 cells/well. After 24 h of cultivation, the medium was removed from the wells and replaced with a fresh one with the addition of the test substances. The volume of the culture medium in the wells was 100
μL. After 24 h incubation of cells in the presence of substances, the medium in the wells was replaced with a fresh one containing MTT reagent at a final concentration of 0.5 mg/mL. The cells were incubated with MTT for 4 h at 37 °C in an atmosphere of 5% CO2. Then, the medium was aspirated from the wells and 100 μL of dimethyl sulfoxide was added. Probes were incubated at 37 °C for 15 min in the dark for the formazan crystals to dissolve. The optical density of the formazan solution in the wells was measured using a plate reader (BioRad xMarkTM Microplate Spectrophotometer, USA) at a wavelength of 570 nm.
Three series of experiments were carried out with at least 8 replications for each variant in the series. […]

Consider `C[N+](C)(CCCNC(=O)COc1cc2c(OCC(=O)NCCC[N+](C)(C)CC(=O)N[C@@H](Cc3ccccc3)C(=O)[O-])cc1Cc1cc(OCC(=O)NCCC[N+](C)(C)CC(=O)N[C@@H](Cc3ccccc3)C(=O)[O-])c(cc1OCC(=O)NCCC[N+](C)(C)CC(=O)N[C@@H](Cc1ccccc1)C(=O)[O-])Cc1cc(OCC(=O)NCCC[N+](C)(C)CC(=O)N[C@@H](Cc3ccccc3)C(=O)[O-])c(cc1OCC(=O)NCCC[N+](C)(C)CC(=O)N[C@@H](Cc1ccccc1)C(=O)[O-])Cc1cc(OCC(=O)NCCC[N+](C)(C)CC(=O)N[C@@H](Cc3ccccc3)C(=O)[O-])c(cc1OCC(=O)NCCC[N+](C)(C)CC(=O)N[C@@H](Cc1ccccc1)C(=O)[O-])Cc1cc(OCC(=O)NCCC[N+](C)(C)CC(=O)N[C@@H](Cc3ccccc3)C(=O)[O-])c(cc1OCC(=O)NCCC[N+](C)(C)CC(=O)N[C@@H](Cc1ccccc1)C(=O)[O-])C2)CC(=O)N[C@@H](Cc1ccccc1)C(=O)[O-]` [Compound 4, 4,8,14,18,23,26,28,31,32,35-Decakis-[(N-[3’-dimethyl({oxidocarbonyl[S-benzyl]methyl}aminocarbonylmethyl)ammonio]propyl)aminocarbonylmethoxy]-pillar[5]arene], for which the “lgKa, logarithm of the association constant with DNA” value at DNA from salmon sperm was 5.24. Besides, the IC50 in the series on A549 cells (A549, MTT, 24 h) is >100 * μg/mL. Besides, the cytotoxic activity entry with A549 cells (A549, concentration range 2–100 μg/mL) is on record as “did not show statistically significant cytotoxic activity”.
